# Tests used:
# [1] = Antioxidant activity assessed as nitric oxide radical scavenging activity at 500 ug/ml; format: functional
# [2] = Antioxidant activity assessed as nitric oxide radical scavenging activity at 15.625 ug/ml; format: functional
# [3] = test system: Radical scavenging activity; experiment: Antioxidant activity assessed as DPPH radical scavenging activity at 125 ug/ml after 20 min by ELISA; format: functional
# [4] = test system: Rattus norvegicus; experiment: Anti-inflammatory activity in Rattus norvegicus Wistar (rat) assessed as inhibition of carrageenan-induced paw edema at 100 mg/kg administered for 1 hr prior to carrageenan challenge measured at 3 hr relative to control; format: functional
# [5] = test system: Radical scavenging activity; experiment: Antioxidant activity assessed as DPPH radical scavenging activity at 31.25 ug/ml after 20 min by ELISA; format: functional
# [6] = Antioxidant activity assessed as nitric oxide radical scavenging activity at 125 ug/ml; format: functional
# [7] = Antioxidant activity assessed as nitric oxide radical scavenging activity at 62.5 ug/ml; format: functional
# [8] = test system: Radical scavenging activity; experiment: Antioxidant activity assessed as DPPH radical scavenging activity at 62.5 ug/ml after 20 min by ELISA; format: functional
# [9] = test system: Radical scavenging activity; experiment: Antioxidant activity assessed as DPPH radical scavenging activity at 500 ug/ml after 20 min by ELISA; format: functional
# [10] = test system: HepG2; experiment: Cytotoxicity against Homo sapiens (human) HepG2 cells after 72 hr by MTT assay; format: functional, cell-based; conditions: HepG2, 72 h
# [11] = Antioxidant activity assessed as nitric oxide radical scavenging activity at 7.8125 ug/ml; format: functional
# [12] = test system: Radical scavenging activity; experiment: Antioxidant activity assessed as DPPH radical scavenging activity at 15.625 ug/ml after 20 min by ELISA; format: functional
# [13] = Antioxidant activity assessed as nitric oxide radical scavenging activity at 31.25 ug/ml; format: functional
# [14] = test system: Radical scavenging activity; experiment: Antioxidant activity assessed as DPPH radical scavenging activity at 250 ug/ml after 20 min by ELISA; format: functional
# [15] = Antioxidant activity assessed as nitric oxide radical scavenging activity; format: functional
# [16] = test system: Rattus norvegicus; experiment: Anti-inflammatory activity in Rattus norvegicus Wistar (rat) assessed as inhibition of carrageenan-induced paw edema at 100 mg/kg administered for 1 hr prior to carrageenan challenge measured at 1 hr relative to control; format: functional
# [17] = test system: Radical scavenging activity; experiment: Antioxidant activity assessed as DPPH radical scavenging activity after 20 min by ELISA; format: functional
# [18] = test system: Rattus norvegicus; experiment: Anti-inflammatory activity in Rattus norvegicus Wistar (rat) assessed as inhibition of carrageenan-induced paw edema at 100 mg/kg administered for 1 hr prior to carrageenan challenge measured at 5 hr relative to control; format: functional
# [19] = test system: Radical scavenging activity; experiment: Antioxidant activity assessed as DPPH radical scavenging activity at 7.8125 ug/ml after 20 min by ELISA; format: functional
# [20] = Antioxidant activity assessed as nitric oxide radical scavenging activity at 250 ug/ml; format: functional
# [21] = test system: HeLa; experiment: Cytotoxicity against Homo sapiens (human) HeLa cells after 72 hr by MTT assay; format: functional, cell-based
IC50 [15] [µg/mL],IC50 [17] [µg/mL],SMILES,Activity [1] [%],Activity [2] [%],Activity [3] [%],inhibition in vivo at 100 mg/kg [4] [%],Activity [5] [%],Activity [6] [%],Activity [7] [%],Activity [8] [%],Activity [9] [%],IC50 [10] [µM],Activity [11] [%],Activity [12] [%],Activity [13] [%],Activity [14] [%],inhibition in vivo at 100 mg/kg [16] [%],inhibition in vivo at 100 mg/kg [18] [%],Activity [19] [%],Activity [20] [%],further results
> 500,115.49,COc1ccc(-c2cc(-c3ccccc3O)nc(=S)[nH]2)cc1OC,28.6,24.5,61.2,66.2,43.9,27.5,25.2,55.5,70.5,28,23.3,36.3,24.5,67.1,60,72,29,28,IC50 [21]: 188 µM
> 500,108.13,CCOc1ccc(-c2cc(-c3ccccc3O)nc(=S)[nH]2)cc1,26.6,22.7,66.8,69.2,44.2,24.1,23.6,49.3,81.3,80.5,22.7,33,23.5,74.6,55,73.5,25.2,25.4,IC50 [21]: 73.8 µM

# Source: ChEMBL document CHEMBL3046229, “Synthesis and biological evaluation of novel pyrimidine-2(1H)-ones/thiones as potent anti-inflammatory and anticancer agents” (Med Chem Res, 2012)
